Paper PMC3699521, “ZrFsy1, a High-Affinity Fructose/H^+ Symporter from Fructophilic Yeast Zygosaccharomyces rouxii” (PLoS ONE, 2013)

Target: T1, ZrFsy1 (Zygosaccharomyces rouxii, UniProt C5DSI4)
T1 construct: gene ZYRO0C00374g; full length, 564 residues, C-terminal GFP tag, multicopy plasmid pZRS1-S (own promoter), expressed in S. cerevisiae hxt-null EBY.VW4000
T1 sequence (C5DSI4 1-564): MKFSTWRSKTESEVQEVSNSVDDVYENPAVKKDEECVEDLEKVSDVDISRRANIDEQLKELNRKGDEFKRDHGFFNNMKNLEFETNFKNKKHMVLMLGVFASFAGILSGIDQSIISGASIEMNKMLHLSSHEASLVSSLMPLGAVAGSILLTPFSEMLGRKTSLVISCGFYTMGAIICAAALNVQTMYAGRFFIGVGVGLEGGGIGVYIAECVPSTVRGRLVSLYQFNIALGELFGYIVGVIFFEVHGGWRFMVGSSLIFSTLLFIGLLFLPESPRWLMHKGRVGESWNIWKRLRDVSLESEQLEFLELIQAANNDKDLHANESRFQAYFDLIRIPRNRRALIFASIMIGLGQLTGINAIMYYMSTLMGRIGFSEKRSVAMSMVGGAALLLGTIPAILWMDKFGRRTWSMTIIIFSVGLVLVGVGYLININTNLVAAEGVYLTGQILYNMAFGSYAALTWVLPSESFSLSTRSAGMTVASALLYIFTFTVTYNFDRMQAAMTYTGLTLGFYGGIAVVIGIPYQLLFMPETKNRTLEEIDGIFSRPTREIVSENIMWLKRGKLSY
Assay: inhibition of [U-14C]fructose uptake; extracellular alkalinisation on sorbose pulse
Type: cell-based
Conditions: competitor of labelled fructose; 10 mM sorbose, 25 °C, pH 5 in the proton symport assay; D / L form not stated

`OCC1(O)OC[C@H](O)[C@@H](O)[C@@H]1O` (stereo partly shown) [sorbose] was tested, and the “inhibition of [U-14C]fructose uptake; extracellular alkalinisation on sorbose pu” value was “transport of radioactive fructose by ZrFsy1 was inhibited by sorbose but not by glucose”.
